The test system of one experiment is SCAD. Put plainly: Chemical screening with the SCAD (Scar-in-a-Dish) assay. The note with it: 2.5 μM final concentration. It counts as cell-based, mice. An excerpt:
Dorsal skins were collected from C57BL/6J or En1^Cre;R26^mTmG or En1^e;R26^VT2/GK3 mice at different ages as indicated, and washed twice with cold DMEM/F12 (Thermo Fisher Scientific 11320074) medium to remove contaminating blood, and washed once with Hank's Balanced Salt Solution (HBSS, Thermo Fisher Scientific 14175095). After careful removal of non-skin tissue at the ventral side with a surgical scalpel, round full-thickness skin pieces were created with disposable Ø 2 mm biopsy punch (Stiefel 270130), and cultured in 300 μl of DMEM/F12 medium containing 10% FBS, 1× GlutaMAX (Thermo Fisher Scientific 35050038), 1× Penicillin/streptomycin (Thermo Fisher Scientific 15140122), and 1× MEM non-essential amino acids (Thermo Fisher Scientific 11140035) in each well of 96-well plates in a humidified 37° C., 5% CO2 incubator. (Note: the 2 mm skin pieces were cultured in medium but not floating at the liquid air surface). Fresh medium was supplied every second day and the skin tissues were harvested at the indicated time points (day 1 to day 5 after culture), with the fresh tissues serving as day 0 control, and fixed in 2% PFA for overnight at 4° C.
D0 SCADs (see Example 2) were first treated with Nefopam from Prestwick chemical library (FDA approved library). The initial concentration of the chemical in library format is 1 mM, dissolved in DMSO. The final concentration of chemical used in FDA-library is 2.5 μM.
All chemicals in the library are the same (1 mM), and they are added by a robot, eg. 0.5 μl chemical per well of 200 μl culture to make 2.5 μM final concentration. SCAD biopsies were prepared in 96-well plate with 200 μl per well, the automated system was used to add the chemical Nefopam.
All the data were compiled on excel sheets and scores were added based on the visual variability observed when compared to the DMSO and media control D5 SCADs.
The chemical Nefopam was selected (see Example 7) and further analyzed on SCAD (see Example 2). The treatment was done in triplicates.

The subject of the next experiment is scar formation. The note with it: stated as known; inhibitor of scar development; cited from earlier work.

Counter-ions that a name gives are not always drawn.

Consider `CN1CCOC(c2ccccc2)c2ccccc2C1` (stereo not shown) [Prestw-229, Nefopam hydrochloride], for which the “collagen formation in SCAD sections” value with SCAD (D5 SCAD sections, compared to control SCAD) is “significantly less”. Also, the “scar formation in the whole-mount image” value in the experiment on SCAD (D5 SCAD, 96-well plate, triplicates, compared to control (media treated) SCAD) is “visually less scar formation”. Also, the scar development result with SCAD (D5 SCAD, FIG. 7) was “visible reduction of scar development”. Moreover, in the experiment with scar formation, the “scar formation (known effect, positive control)” value is on record as “known to reduce scar formation”.
